We go through 2 compounds from PMC8269116 (Journal of psychopharmacology (Oxford, England), 2019).

Values joined by “and” are separate entries in the source; they are usually repeats but may differ in a detail not shown here. Equal values may be shown once.

T2 sequence (Q01959 whole entry): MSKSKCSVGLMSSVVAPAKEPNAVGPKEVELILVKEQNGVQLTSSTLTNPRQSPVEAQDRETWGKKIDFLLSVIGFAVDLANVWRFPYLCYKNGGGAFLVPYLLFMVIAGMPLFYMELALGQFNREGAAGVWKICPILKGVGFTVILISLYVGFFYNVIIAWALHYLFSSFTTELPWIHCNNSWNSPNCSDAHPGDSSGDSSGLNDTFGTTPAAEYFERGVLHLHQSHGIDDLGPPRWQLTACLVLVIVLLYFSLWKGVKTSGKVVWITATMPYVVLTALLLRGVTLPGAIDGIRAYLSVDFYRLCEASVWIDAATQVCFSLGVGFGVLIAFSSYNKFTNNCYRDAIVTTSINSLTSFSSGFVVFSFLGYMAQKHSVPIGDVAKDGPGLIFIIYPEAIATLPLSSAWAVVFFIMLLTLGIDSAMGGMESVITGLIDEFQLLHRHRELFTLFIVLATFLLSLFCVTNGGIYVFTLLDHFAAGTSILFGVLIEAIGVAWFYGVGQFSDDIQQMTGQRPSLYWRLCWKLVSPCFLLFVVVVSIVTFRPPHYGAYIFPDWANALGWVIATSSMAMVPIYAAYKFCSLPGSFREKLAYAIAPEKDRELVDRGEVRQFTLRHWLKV
Sequence of SERT (P31645 whole entry): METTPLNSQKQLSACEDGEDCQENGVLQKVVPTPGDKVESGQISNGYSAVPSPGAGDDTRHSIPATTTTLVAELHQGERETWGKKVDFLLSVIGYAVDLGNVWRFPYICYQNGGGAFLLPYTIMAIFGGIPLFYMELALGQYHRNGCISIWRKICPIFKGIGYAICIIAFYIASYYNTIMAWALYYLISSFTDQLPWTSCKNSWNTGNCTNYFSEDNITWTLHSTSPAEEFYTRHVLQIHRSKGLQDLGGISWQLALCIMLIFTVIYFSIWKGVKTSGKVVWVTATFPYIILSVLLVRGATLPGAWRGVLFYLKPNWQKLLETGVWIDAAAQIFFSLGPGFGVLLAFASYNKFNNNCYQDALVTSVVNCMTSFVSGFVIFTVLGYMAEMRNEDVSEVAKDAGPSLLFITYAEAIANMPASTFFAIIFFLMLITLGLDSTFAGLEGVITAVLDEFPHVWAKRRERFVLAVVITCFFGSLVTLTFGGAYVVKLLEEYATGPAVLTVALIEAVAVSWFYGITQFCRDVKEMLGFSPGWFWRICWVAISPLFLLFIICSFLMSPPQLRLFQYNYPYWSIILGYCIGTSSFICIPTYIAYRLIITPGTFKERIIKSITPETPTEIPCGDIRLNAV
Sequence of rat TAAR1 (Q923Y9 whole entry): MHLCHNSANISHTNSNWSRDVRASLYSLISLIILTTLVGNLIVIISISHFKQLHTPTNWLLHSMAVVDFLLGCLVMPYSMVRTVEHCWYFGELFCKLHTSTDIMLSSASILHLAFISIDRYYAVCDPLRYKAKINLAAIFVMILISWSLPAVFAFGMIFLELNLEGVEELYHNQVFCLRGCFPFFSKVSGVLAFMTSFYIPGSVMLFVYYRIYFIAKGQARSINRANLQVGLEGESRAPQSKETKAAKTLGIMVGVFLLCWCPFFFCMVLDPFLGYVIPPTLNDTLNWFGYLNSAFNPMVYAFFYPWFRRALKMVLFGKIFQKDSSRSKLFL

The target in one data set is T1, NET (Homo sapiens, UniProt P23975). Kind of data set: [3H]norepinephrine uptake inhibition in HEK 293 cells overexpressing human NET. It is filed as cell-based.
T1 sequence (P23975 whole entry): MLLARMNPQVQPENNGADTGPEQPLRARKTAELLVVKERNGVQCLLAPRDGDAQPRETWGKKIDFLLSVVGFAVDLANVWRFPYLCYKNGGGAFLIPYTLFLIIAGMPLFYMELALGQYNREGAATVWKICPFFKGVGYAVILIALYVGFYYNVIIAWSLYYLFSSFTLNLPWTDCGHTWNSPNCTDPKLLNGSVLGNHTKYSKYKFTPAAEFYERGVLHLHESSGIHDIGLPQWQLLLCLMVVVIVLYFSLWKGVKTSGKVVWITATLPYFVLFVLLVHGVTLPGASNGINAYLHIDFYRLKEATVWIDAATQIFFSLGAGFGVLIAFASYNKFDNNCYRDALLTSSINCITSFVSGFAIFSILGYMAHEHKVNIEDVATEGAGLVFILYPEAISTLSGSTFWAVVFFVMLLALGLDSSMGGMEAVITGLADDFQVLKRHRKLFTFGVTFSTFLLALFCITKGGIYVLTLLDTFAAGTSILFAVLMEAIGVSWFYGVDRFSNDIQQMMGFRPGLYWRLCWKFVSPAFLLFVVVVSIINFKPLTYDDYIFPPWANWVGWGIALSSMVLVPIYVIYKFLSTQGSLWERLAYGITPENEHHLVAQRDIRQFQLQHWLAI
Details: not given
A word on the IC50: it is the point on the concentration scale where inhibition reaches its midpoint. `CNC(C)Cc1ccc2c(c1)OCO2` (stereo not drawn) [MDMA, 3,4-Methylenedioxymethamphetmine, reference compound]: the half-maximal inhibitory concentration (IC50) was determined as 0.38 µM.

The next data set concerns the target T2, DAT (Homo sapiens, UniProt Q01959). Description: [3H]dopamine uptake inhibition in HEK 293 cells overexpressing human DAT. The data set is classed as cell-based.
Details: not given
As for `CNC(C)Cc1ccc2c(c1)OCO2` (stereo not drawn) [MDMA, 3,4-Methylenedioxymethamphetmine, reference compound], half-maximal inhibition (IC50) required 21 µM.

The data set is the same for the next values; noted with them: 1/DAT IC50 : 1/SERT IC50; mean and 95% confidence interval.
As for `CCCC(C(=O)c1ccc2c(c1)OCO2)N1CCCC1` (stereo not drawn) [MDPV, 3,4-methylenedioxypyrovalerone, reference compound], the DAT/SERT ratio is 226 (143–350).

For a further data set, the target named is human 5-HT transporter (SERT) (Homo sapiens, UniProt P31645). Kind of data set: [3H]5-HT uptake inhibition in HEK 293 cells overexpressing human SERT. The data set is classed as cell-based.
Sequence of human 5-HT transporter (SERT) (P31645 whole entry): as the sequence (P31645 whole entry) above
Details: not given
Consider `CNC(C)Cc1ccc2c(c1)OCO2` (stereo not drawn) [MDMA, 3,4-Methylenedioxymethamphetmine, reference compound], for which half-maximal inhibition (IC50) was put at 2.5 µM.

The same data set, now with this note: read-out: SERT IC50; 5-HT uptake inhibition; mean and 95% confidence interval.
Regarding `CCCC(C(=O)c1ccc2c(c1)OCO2)N1CCCC1` (stereo not drawn) [MDPV, 3,4-methylenedioxypyrovalerone, reference compound], the IC50 came out at 12 µM.

In a further data set the target is T1, NET. Description: Radioligand binding, N-methyl-[3H]nisoxetine displacement.
Details: not given
As usually defined, the Ki is the dissociation constant of the complex between target and ligand, obtained from inhibition or displacement. As to `CNC(C)Cc1ccc2c(c1)OCO2` (stereo not drawn) [MDMA, 3,4-Methylenedioxymethamphetmine, reference compound], the Ki was > 8.7 µM.

The data set is the same for the next values; noted with them: read-out: NET Ki; mean±SD, n=3.
For `CCCC(C(=O)c1ccc2c(c1)OCO2)N1CCCC1` (stereo not drawn) [MDPV, 3,4-methylenedioxypyrovalerone, reference compound], the Ki was 0.1 ± 0.01 µM.

The next data set concerns the target T2, DAT. Description: Radioligand binding, [3H]WIN35,428 displacement.
Details: not given
With `CNC(C)Cc1ccc2c(c1)OCO2` (stereo not drawn) [MDMA, 3,4-Methylenedioxymethamphetmine, reference compound], the Ki was > 8.5 µM.

The data set is the same for the next values; noted with them: read-out: DAT Ki; mean±SD, n=3.
Regarding `CCCC(C(=O)c1ccc2c(c1)OCO2)N1CCCC1` (stereo not drawn) [MDPV, 3,4-methylenedioxypyrovalerone, reference compound], the Ki is 0.01 µM and 0.011 µM.

The next data set concerns the target SERT (Homo sapiens, UniProt P31645). Kind of data set: Radioligand binding, [3H]citalopram displacement.
Details: not given
As for `CNC(C)Cc1ccc2c(c1)OCO2` (stereo not drawn) [MDMA, 3,4-Methylenedioxymethamphetmine, reference compound], the Ki is > 7.5 µM.

The same data set, now with this note: read-out: SERT Ki; mean±SD, n=3.
On to `CCCC(C(=O)c1ccc2c(c1)OCO2)N1CCCC1` (stereo not drawn) [MDPV, 3,4-methylenedioxypyrovalerone, reference compound], for which the Ki came to 2.2 ± 0.1 µM.

The target in another data set is dopamine D2 receptors (Homo sapiens, UniProt P14416). Description: Radioligand binding, [3H]spiperone displacement.
Sequence of dopamine D2 receptors (P14416 whole entry): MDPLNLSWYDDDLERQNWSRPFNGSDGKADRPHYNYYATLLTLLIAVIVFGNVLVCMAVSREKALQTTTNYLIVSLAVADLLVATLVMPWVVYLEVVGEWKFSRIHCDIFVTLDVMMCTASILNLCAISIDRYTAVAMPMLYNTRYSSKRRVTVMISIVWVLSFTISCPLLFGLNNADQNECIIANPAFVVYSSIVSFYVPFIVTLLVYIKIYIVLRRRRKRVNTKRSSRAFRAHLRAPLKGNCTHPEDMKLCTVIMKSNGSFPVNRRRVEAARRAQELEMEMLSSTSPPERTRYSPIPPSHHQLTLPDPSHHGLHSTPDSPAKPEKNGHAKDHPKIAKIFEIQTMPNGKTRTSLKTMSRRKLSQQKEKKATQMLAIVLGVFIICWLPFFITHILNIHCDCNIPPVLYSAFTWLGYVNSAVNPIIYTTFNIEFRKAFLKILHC
Details: not given
As for `CNC(C)Cc1ccc2c(c1)OCO2` (stereo not drawn) [MDMA, 3,4-Methylenedioxymethamphetmine, reference compound], the Ki is > 13 µM.

The same data set, now with this note: read-out: D2 Ki; mean±SD, n=3.
As to `CCCC(C(=O)c1ccc2c(c1)OCO2)N1CCCC1` (stereo not drawn) [MDPV, 3,4-methylenedioxypyrovalerone, reference compound], the Ki is > 13 µM.

For a further data set, the target named is T3, α1 adrenergic receptor (α1A) (Homo sapiens, UniProt P35348).
T3 sequence (P35348 1-466): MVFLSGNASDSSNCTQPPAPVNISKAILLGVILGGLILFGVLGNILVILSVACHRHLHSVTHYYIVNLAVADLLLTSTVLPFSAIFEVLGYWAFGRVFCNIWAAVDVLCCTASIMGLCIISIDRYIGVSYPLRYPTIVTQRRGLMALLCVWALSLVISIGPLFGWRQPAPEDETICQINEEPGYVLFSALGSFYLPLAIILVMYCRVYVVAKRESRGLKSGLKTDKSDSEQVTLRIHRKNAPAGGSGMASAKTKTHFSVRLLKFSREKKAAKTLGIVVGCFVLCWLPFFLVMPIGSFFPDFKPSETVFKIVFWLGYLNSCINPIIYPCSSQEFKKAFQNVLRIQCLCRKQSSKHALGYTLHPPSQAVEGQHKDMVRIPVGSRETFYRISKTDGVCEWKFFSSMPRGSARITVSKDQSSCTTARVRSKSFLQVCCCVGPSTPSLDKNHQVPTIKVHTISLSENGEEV
Description: Radioligand binding, [3H]prazosin displacement. As to conditions: read-out: α1A Ki; mean±SD, n=3.
As to `CCCC(C(=O)c1ccc2c(c1)OCO2)N1CCCC1` (stereo not drawn) [MDPV, 3,4-methylenedioxypyrovalerone, reference compound], the Ki was > 9.5 µM.

For the next data set, the target named is T4, α2 adrenergic receptor (α2A) (Homo sapiens, UniProt P08913).
T4 sequence (P08913 1-465): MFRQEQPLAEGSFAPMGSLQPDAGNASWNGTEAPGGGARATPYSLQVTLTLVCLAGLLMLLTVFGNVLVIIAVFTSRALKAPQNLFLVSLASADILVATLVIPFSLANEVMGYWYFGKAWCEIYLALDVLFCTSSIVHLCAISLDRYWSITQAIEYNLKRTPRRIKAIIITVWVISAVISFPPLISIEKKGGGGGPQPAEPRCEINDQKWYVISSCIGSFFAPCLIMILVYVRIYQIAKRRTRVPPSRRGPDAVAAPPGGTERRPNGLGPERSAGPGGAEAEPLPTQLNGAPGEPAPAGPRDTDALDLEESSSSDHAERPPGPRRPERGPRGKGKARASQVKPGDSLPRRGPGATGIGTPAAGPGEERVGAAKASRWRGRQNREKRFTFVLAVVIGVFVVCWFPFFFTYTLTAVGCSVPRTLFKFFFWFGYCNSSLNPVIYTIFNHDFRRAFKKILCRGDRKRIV
Kind of data set: Radioligand binding, [3H]rauwolscine displacement. As to conditions: read-out: α2A Ki; mean±SD, n=3.
For the compound `CCCC(C(=O)c1ccc2c(c1)OCO2)N1CCCC1` (stereo not drawn) [MDPV, 3,4-methylenedioxypyrovalerone, reference compound], the Ki was > 5 µM.

The target in the next data set is T5, 5-HT1A receptor (Homo sapiens, UniProt P08908).
T5 sequence (P08908 1-422): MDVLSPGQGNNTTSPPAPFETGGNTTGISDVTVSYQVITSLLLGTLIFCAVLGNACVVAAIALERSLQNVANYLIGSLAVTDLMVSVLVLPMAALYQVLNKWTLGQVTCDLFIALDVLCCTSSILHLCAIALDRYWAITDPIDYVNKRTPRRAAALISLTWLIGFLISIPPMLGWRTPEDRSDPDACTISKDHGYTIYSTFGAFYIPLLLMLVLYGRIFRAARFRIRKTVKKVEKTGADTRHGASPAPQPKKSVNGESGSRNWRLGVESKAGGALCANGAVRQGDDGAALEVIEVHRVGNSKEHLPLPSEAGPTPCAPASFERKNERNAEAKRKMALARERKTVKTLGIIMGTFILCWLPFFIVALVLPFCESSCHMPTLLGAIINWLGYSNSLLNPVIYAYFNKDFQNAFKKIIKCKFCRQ
Kind of data set: Radioligand binding, [3H]8-hydroxy-2-. The settings on record: read-out: 5-HT1A Ki; mean±SD, n=3.
Take `CCCC(C(=O)c1ccc2c(c1)OCO2)N1CCCC1` (stereo not drawn) [MDPV, 3,4-methylenedioxypyrovalerone, reference compound]: the inhibition constant (Ki) came to 12 ± 2 µM.

In a further data set the target is 5-HT2A receptor (Homo sapiens, UniProt P28223). Description: Radioligand binding, [3H]ketanserin displacement.
Sequence of 5-HT2A receptor (P28223 whole entry): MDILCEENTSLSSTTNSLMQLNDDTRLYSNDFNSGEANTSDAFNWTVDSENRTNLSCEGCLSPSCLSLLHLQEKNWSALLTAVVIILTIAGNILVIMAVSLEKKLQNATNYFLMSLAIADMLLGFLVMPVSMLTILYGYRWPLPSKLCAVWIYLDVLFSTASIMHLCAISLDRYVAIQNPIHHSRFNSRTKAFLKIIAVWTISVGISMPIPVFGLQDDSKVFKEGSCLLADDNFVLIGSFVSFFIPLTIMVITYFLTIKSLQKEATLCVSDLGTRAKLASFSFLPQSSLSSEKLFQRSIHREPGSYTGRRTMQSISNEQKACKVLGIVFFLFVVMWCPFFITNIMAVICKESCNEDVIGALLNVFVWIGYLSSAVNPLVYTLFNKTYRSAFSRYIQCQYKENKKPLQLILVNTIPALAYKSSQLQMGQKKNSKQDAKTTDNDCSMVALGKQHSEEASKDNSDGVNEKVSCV
Details: not given
As to `CNC(C)Cc1ccc2c(c1)OCO2` (stereo not drawn) [MDMA, 3,4-Methylenedioxymethamphetmine, reference compound], the Ki was determined as 4.6 ± 1.1 µM.

The data set is the same for the next values; noted with them: read-out: 5-HT2A Ki; mean±SD, n=3.
`CCCC(C(=O)c1ccc2c(c1)OCO2)N1CCCC1` (stereo not drawn) [MDPV, 3,4-methylenedioxypyrovalerone, reference compound]: the Ki is > 12 µM.

In the next data set the target is T6, 5-HT2C receptor (Homo sapiens, UniProt P28335).
T6 sequence (P28335 33-458): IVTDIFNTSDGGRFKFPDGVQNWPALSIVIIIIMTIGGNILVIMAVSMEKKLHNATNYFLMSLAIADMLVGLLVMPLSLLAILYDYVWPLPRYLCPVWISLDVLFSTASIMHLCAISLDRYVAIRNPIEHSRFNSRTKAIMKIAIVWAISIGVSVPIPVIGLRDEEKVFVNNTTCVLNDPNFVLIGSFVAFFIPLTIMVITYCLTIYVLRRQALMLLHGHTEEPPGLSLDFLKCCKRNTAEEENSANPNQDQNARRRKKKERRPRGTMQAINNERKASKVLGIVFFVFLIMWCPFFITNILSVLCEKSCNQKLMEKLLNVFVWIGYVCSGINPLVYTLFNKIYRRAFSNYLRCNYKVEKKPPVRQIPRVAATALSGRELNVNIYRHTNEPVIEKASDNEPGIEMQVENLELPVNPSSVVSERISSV
Kind of data set: biochemical. It is filed as binding. The settings on record: read-out: 5-HT2c Ki; mean±SD, n=3.
As for `CCCC(C(=O)c1ccc2c(c1)OCO2)N1CCCC1` (stereo not drawn) [MDPV, 3,4-methylenedioxypyrovalerone, reference compound], the Ki is 2 µM and 2.1 µM.

A further data set concerns the target rat TAAR1 (Rattus norvegicus, UniProt Q923Y9). Description: Radioligand binding, [3H]RO5166017 displacement.
Details: not given
Compound `CNC(C)Cc1ccc2c(c1)OCO2` (stereo not drawn) [MDMA, 3,4-Methylenedioxymethamphetmine, reference compound] displayed a Ki of 0.25 ± 0.01 µM.

The data set is the same for the next values; noted with them: read-out: TAAR1rat Ki; mean±SD, n=3.
With `CCCC(C(=O)c1ccc2c(c1)OCO2)N1CCCC1` (stereo not drawn) [MDPV, 3,4-methylenedioxypyrovalerone, reference compound], the Ki is > 5 µM.

In another data set the target is mouse TAAR1 (Mus musculus, UniProt Q923Y8). Kind of data set: Radioligand binding, [3H]RO5166017 displacement.
Sequence of mouse TAAR1 (Q923Y8 whole entry): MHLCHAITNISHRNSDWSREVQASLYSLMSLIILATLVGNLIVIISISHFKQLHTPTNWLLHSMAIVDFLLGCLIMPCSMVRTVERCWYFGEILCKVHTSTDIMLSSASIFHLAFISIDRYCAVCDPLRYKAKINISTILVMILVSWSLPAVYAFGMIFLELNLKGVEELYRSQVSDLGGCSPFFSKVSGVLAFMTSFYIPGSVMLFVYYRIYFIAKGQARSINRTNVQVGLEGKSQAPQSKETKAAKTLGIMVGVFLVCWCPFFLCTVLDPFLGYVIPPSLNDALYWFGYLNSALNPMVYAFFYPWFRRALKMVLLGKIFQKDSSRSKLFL
Details: not given
In turn, `CNC(C)Cc1ccc2c(c1)OCO2` (stereo not drawn) [MDMA, 3,4-Methylenedioxymethamphetmine, reference compound] gave a Ki of 3.1 ± 0.7 µM.

The same data set, now with this note: read-out: TAAR1mouse Ki; mean±SD, n=3.
Take `CCCC(C(=O)c1ccc2c(c1)OCO2)N1CCCC1` (stereo not drawn) [MDPV, 3,4-methylenedioxypyrovalerone, reference compound]: the Ki is > 4.7 µM.

System in the next data set: not given
Assay: not given
As to conditions: rats, subcutaneous injections of 0.5–2 mg/kg MDPV; ref Anizan et al., 2016; cited from earlier work.
The Tmax is the time at which the peak concentration occurs. Take `CCCC(C(=O)c1ccc2c(c1)OCO2)N1CCCC1` (stereo not drawn) [MDPV, 3,4-methylenedioxypyrovalerone, reference compound]: the Tmax is 13 to 19 min.
